In brackets after ≈: the same amount, converted by molar mass.
Experiments:
[1] = test system: Mus musculus; experiment: Assayed for antitumor activity against P388 leukemia in mice at a dose of 50 mg/kg/injection; format: functional
[2] = test system: Mus musculus; experiment: Assayed for antitumor activity against P388 leukemia in mice at a dose of 25 mg/kg/injection; format: functional
[3] = test system: Mus musculus; experiment: Assayed for antitumor activity against P388 leukemia in mice at a dose of 100 mg/kg/injection; Toxic, T/C<85%; format: toxicity, organism-based; details: in vivo
[4] = test system: L1210; experiment: Tested for in vitro cytotoxicity against L1210 murine leukemia cells in mice; format: functional, cell-based; details: Mus musculus
[5] = test system: Mus musculus; experiment: Assayed for antitumor activity against P388 leukemia in mice at a dose of 10 mg/kg/injection; format: functional
[6] = test system: Mus musculus; experiment: Assayed for antitumor activity against P388 leukemia in mice at a dose of 5 mg/kg/injection; format: functional
[7] = test system: Mus musculus; experiment: Assayed for antitumor activity against P388 leukemia in mice at a dose of 100 mg/kg/injection; format: functional
[8] = test system: Mus musculus; experiment: Assayed for antitumor activity against P388 leukemia in mice at a dose of 250 mg/kg/injection; Toxic, T/C<85%; format: toxicity, organism-based; details: in vivo
[9] = test system: Mus musculus; experiment: Assayed for antitumor activity against P388 leukemia in mice at a dose of 250 mg/kg/injection; format: functional
[10] = test system: Mus musculus; experiment: Tested for antitumor activity against B16 melanoma in mice, at a dose of 50 mg/kg given intraperitoneally; format: functional; details: route intraperitoneal
[11] = test system: Mus musculus; experiment: Tested for antitumor activity against vincristine-resistant P388 leukemia (P388/VCR) in mice, at a dose of 2.5 mg/kg given intraperitoneally; format: functional; details: route intraperitoneal
[12] = test system: Mus musculus; experiment: Tested for antitumor activity against vincristine-resistant P388 leukemia (P388/VCR) in mice, at a dose of 5 mg/kg given intraperitoneally; format: functional; details: route intraperitoneal
[13] = test system: Mus musculus; experiment: Tested for antitumor activity against vincristine-resistant P388 leukemia (P388/VCR) in mice, at a dose of 25 mg/kg given intraperitoneally; format: functional; details: route intraperitoneal
[14] = test system: Mus musculus; experiment: Tested for antitumor activity against vincristine-resistant P388 leukemia (P388/VCR) in mice, at a dose of 10 mg/kg given intraperitoneally; format: functional; details: route intraperitoneal
[15] = test system: Mus musculus; experiment: Tested for antitumor activity against B16 melanoma in mice, at a dose of 100 mg/kg given intraperitoneally; format: functional; details: route intraperitoneal
[16] = test system: Mus musculus; experiment: Assayed for antitumor activity against P388 leukemia in mice at a dose of 2.5 mg/kg/injection; format: functional
[17] = Evaluated for the inhibition of microtubule assembly prepared from bovine brain; format: functional, Bos taurus
[18] = test system: Mus musculus; experiment: Tested for antitumor activity against vincristine-resistant P388 leukemia (P388/VCR) in mice, at a dose of 10 mg/kg given intraperitoneally; Toxic, T/C<85%; format: toxicity, organism-based; set-up: dose 10 mg/kg, route intraperitoneal; details: in vivo, ip
[19] = test system: Mus musculus; experiment: Tested for antitumor activity against B16 melanoma in mice, at a dose of 25 mg/kg given intraperitoneally; format: functional; details: route intraperitoneal
[20] = test system: Mus musculus; experiment: Tested for antitumor activity against B16 melanoma in mice at a dose of 25 mg/kg given intraperitoneally; format: functional; details: route intraperitoneal
[21] = test system: Mus musculus; experiment: Tested for antitumor activity against vincristine-resistant P388 leukemia (P388/VCR) in mice at a dose 2.5 mg/kg, given intraperitoneally; format: functional; details: route intraperitoneal
[22] = test system: Mus musculus; experiment: Tested for antitumor activity against vincristine-resistant P388 leukemia (P388/VCR) in mice at a dose 5 mg/kg, given intraperitoneally; Toxic, T/C<85%; format: toxicity, organism-based; set-up: dose 5 mg/kg, route intraperitoneal; details: in vivo, ip
[23] = test system: Mus musculus; experiment: Assayed for antitumor activity against P388 leukemia in mice at a dose of 50 mg/kg/injection; Toxic, T/C<85%; format: toxicity, organism-based; details: in vivo
[24] = test system: Mus musculus; experiment: Tested for antitumor activity against vincristine-resistant P388 leukemia (P388/VCR) in mice at a dose 1 mg/kg, given intraperitoneally; format: functional; details: route intraperitoneal

Structure (SMILES)	T/C [1] [%]	T/C [2] [%]	IC50 [4] [µg/mL]	T/C [5] [%]	T/C [6] [%]	T/C [7] [%]	T/C [9] [%]	other results
COc1cc(OC)cc([C@@H]2c3cc4c(cc3N[C@H]3COC(=O)N23)OCCO4)c1	199	147	0.028 (≈ 0.0728 µM)	131	114	–	–	T/C [3]: < 85%
COc1cc(OC)cc([C@@H]2c3cc4c(cc3N[C@@H]3COC(=O)N23)OCO4)c1	159	137	0.22 (≈ 0.594 µM)	123	–	214	–	–
COc1cc([C@@H]2c3cc4c(cc3N[C@@H]3COC(=O)N23)OCCO4)cc(OC)c1OC	165	153	0.052 (≈ 0.125 µM)	131	119	233	–	T/C [8]: < 85%
COc1cc([C@@H]2c3cc4c(cc3N(N)[C@@H]3COC(=O)N23)OCO4)cc(OC)c1OC	147	122	0.75 (≈ 1.81 µM)	111	–	147	161	–
COc1cc([C@@H]2c3cc4c(cc3N[C@H]3COC(=O)N23)OCO4)cc(OC)c1OC	161	150	0.05 (≈ 0.125 µM)	128	124	172	>326	T/C [10]: 153%; T/C [11]: 113%; T/C [12]: 129%; T/C [13]: 152%; T/C [14]: 152%; T/C [15]: 197%; T/C [16]: 111%; IC50 [17]: 0.42 µg/mL (≈ 1.05 µM)
COc1cc([C@@H]2c3cc4c(cc3N[C@H]3COC(=O)N23)OCCO4)cc(OC)c1OC	177	156	0.055 (≈ 0.133 µM)	144	139	–	–	T/C [3]: < 85%
COc1cc([C@@H]2c3cc4c(cc3N[C@@H]3COC(=O)N23)OCO4)cc(OC)c1OC	239	161	0.42 (≈ 1.05 µM)	144	117	–	–	T/C [10]: 190%; T/C [12]: 137%; IC50 [17]: 1.7 µg/mL (≈ 4.25 µM); T/C [18]: < 85%; T/C [19]: 163%
COc1cc(OC)cc([C@@H]2c3cc4c(cc3N[C@@H]3COC(=O)N23)OCCO4)c1	172	150	0.08 (≈ 0.208 µM)	133	117	94	–	T/C [8]: < 85%
COc1cc([C@@H]2c3cc4c(cc3N(N)[C@H]3COC(=O)N23)OCO4)cc(OC)c1OC	134	114	0.09 (≈ 0.217 µM)	109	104	153	–	T/C [8]: < 85%
COc1cc(OC)cc([C@@H]2c3cc4c(cc3N[C@H]3COC(=O)N23)OCO4)c1	156	139	0.16 (≈ 0.432 µM)	110	–	206	206	–
COc1cc(C2c3cc4c(cc3N=C3COC(=O)N32)OCO4)cc(OC)c1OC (configuration not stated)	111	109	0.54 (≈ 1.36 µM)	109	104	109	144	–
COc1cc([C@@H]2c3cc4c(cc3[C@H](O)[C@H]3COC(=O)[C@H]23)OCO4)cc(OC)c1OC [PODOFILOX]	–	111	0.0036 (≈ 0.00869 µM)	109	–	–	–	T/C [20]: 110%; T/C [21]: 125%; T/C [22]: < 85%; T/C [16]: 111%; IC50 [17]: 0.13 µg/mL (≈ 0.314 µM); T/C [23]: < 85%; T/C [24]: 122%
